Reference: the NIST ThermoML archive (doi:10.1016/j.jct.2005.10.001)
Numbers after ± are expanded uncertainties.

Columns and labels:
[1] = Liquid; for mass density: 293.15 K, 101.33 kPa, Vibrating tube method
[2] = refractive index (Na D-line) (dimensionless); conditions: 293.15 K; 101.33 kPa; Liquid; Standard Abbe refractometry

C=C(C)OCC [2-ethoxy-1-propene]
Conditions	mass density [kg/m3]	refractive index
[1]	771.2 ± 0.2	–
[2]	–	1.3913 ± 0.0004

[1], Ebulliometric method (Recirculating still)
Conditions	vapor or sublimation pressure [kPa]
320.98 K	62.74 ± 0.8
322.13 K	65.19 ± 0.9
322.7 K	66.66 ± 1.5
323.15 K	67.84 ± 0.7
323.47 K	68.4 ± 0.9
324.5 K	70.65 ± 0.9
325.43 K	72.69 ± 1
326.52 K	75.47 ± 1
327.43 K	77.89 ± 1
327.69 K	79.99 ± 2.1
328.26 K	80.16 ± 1.1
329.39 K	83.21 ± 1.1
329.89 K	85.35 ± 1.1
329.96 K	86.66 ± 2.3
331.07 K	88.17 ± 1.2
331.1 K	89.99 ± 2.5
331.48 K	90.62 ± 1.2
332.88 K	93.41 ± 1.2
333.15 K	95.98 ± 1
333.68 K	96.12 ± 1.3
334.46 K	98.47 ± 1.8
334.57 K	99.82 ± 1.8
334.67 K	99.99 ± 3.1

CC(C)=O [acetone]
Conditions	mass density [kg/m3]	refractive index
[1]	784.5 ± 0.2	–
[2]	–	1.359 ± 0.0004

[1]
Conditions	vapor or sublimation pressure [kPa]
317.58 K	66.66 ± 1.6
322.68 K	79.99 ± 2.1
323.15 K	81.39 ± 0.82
324.94 K	86.66 ± 2.1
328.98 K	99.99 ± 2.6

CCC(C)=O [butanone]
Conditions	mass density [kg/m3]	refractive index
[1]	799.8 ± 0.2	–
[2]	–	1.3765 ± 0.0004

[1]
Conditions	vapor or sublimation pressure [kPa]
333.15 K	51.89 ± 0.59
340.17 K	66.66 ± 1.6
345.51 K	79.99 ± 2.2
349.12 K	89.99 ± 2.4
352.3 K	99.99 ± 2.8
